Assay results reported in publication PMC9603521, “WYBQ-4: a New Bactericidal Agent against Methicillin-Resistant Staphylococcus aureus” (Microbiology Spectrum, 2022).
“And” between values parts separate entries of the source, which are not always exact repeats. Equal entries are not always repeated.

Key:
[1] = tested on: Enterococcus faecalis; assay: MIC by broth microdilution (CLSI); format: cell-based; settings: compared to that against Staphylococcus
[2] = tested on: Enterococcus faecium; assay: MIC by broth microdilution (CLSI); format: cell-based; settings: compared to that against Staphylococcus
[3] = tested on: rabbit red blood cells; assay: Hemolytic activity; format: cell-based; settings: 0 to 512 μg/mL
[4] = tested on: MSSA 29213; assay: Mouse intramuscular (thigh) infection model; format: in vivo; settings: MSSA 29213-infected mice; 300 mg/kg subcutaneous; 24 h after infection
Protocol: (§1) The therapeutic effects of WYBQ-4 on thigh infections induced by MRSA USA300 and MSSA 29213 in mice (6-week-old female C57BL/6J mice) were evaluated. […] Mice were infected by intramuscular injection of 0.1 mL of S. aureus culture (5 × 10^5 CFU) into the right thigh. […] Then, 24 h after infection, mice were euthanized, and the right thighs were aseptically removed, weighed, homogenized, and applied to nonresistant BHI plates for CFU counting.

[5] = tested on: MRSA USA300; assay: Mouse intramuscular (thigh) infection model; format: in vivo; settings: MRSA USA300-infected mice; 300 mg/kg subcutaneous; 24 h after infection
Protocol: as §1

[6] = tested on: MSSA 29213; assay: Time-kill curve; format: cell-based, Staphylococcus aureus; settings: 4× MIC, at 9 h
Protocol: (§2) The bactericidal activities of WYBQ-4 against MSSA 29213 and MRSA USA300 were determined in vitro. Overnight cultures were diluted to 10^6 CFU (CFU)/mL in 10 mL of fresh Mueller-Hinton broth (MHB) medium. […] After incubation at 37°C with shaking for 0 to 24 h, 100-μL samples from each time point were subcultured on MHB agar plates and incubated at 37°C for 24 h. MSSA 29213 and MRSA USA300 without WYBQ-4 were used as control groups. Colony numbers were counted to calculate the CFU, and the data were expressed as log10 CFU. Three biological replicates were performed for the experiment.

[7] = tested on: MRSA USA300; assay: Time-kill curve; format: cell-based, Staphylococcus aureus; settings: 8× MIC, at 9 h
Protocol: as §2

[8] = molecular target: T1, PBP2a (Staphylococcus aureus, UniProt P07944); assay: Dissociation equilibrium constant (Ks) by BOCILLIN FL method; format: binding, MRSA
T1 sequence (P07944 whole entry): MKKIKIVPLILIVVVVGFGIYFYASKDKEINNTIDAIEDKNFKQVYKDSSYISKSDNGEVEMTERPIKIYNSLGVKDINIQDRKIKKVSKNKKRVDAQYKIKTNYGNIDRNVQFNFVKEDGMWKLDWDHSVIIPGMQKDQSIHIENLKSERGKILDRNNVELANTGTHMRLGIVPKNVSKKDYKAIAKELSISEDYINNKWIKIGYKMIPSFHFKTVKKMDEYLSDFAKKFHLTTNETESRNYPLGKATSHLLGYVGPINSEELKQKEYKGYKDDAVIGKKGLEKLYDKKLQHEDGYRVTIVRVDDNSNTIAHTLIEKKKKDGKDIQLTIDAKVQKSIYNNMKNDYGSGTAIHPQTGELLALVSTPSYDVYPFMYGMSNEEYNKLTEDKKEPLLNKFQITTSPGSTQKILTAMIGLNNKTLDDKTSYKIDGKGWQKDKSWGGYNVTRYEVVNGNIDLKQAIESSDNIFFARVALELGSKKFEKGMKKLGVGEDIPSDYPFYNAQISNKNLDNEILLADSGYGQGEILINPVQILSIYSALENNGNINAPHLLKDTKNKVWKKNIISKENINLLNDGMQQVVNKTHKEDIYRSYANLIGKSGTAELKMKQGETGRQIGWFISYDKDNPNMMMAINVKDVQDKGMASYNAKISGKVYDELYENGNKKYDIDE
Protocol: (§3) Α = A + ∆ε E (k∗ ∕ (k∗ + k∗)(1 − exp (−(k∗ + k∗)t)) + k N ∆ε Ε t (2)
(§4) Where kn* is the pseudo-first-order rate constant for acylation by nitrocefin at the concentration (N0) employed (0.1 mM), ki* the pseudo-first-order rate constant for the reaction of PBP2a with the WYBQ-4, E0 the initial enzyme concentration (2.5 µM), and k0 the second-order rate constant of nonspecific nitrocefin hydrolysis. Second-order rate constants (ki) for acylation were calculated from a linear least-squares fit to a plot of the apparent first-order rate constants (ki*) against the concentration of WYBQ-4. All plots were linear for the concentrations of WYBQ-4 used.
(§5) Determination of dissociation equilibrium constants (Ks) of WYBQ-4 and PBP2a The dissociation equilibrium constant (Ks) of PBP2a with WYBQ-4 were determined by the BOCILLIN method (2), as previously described. […] Samples (30 μL) were loaded onto a 10% SDS-polyacrylamide gel, which was developed and then observed using a fluorescence imager to calculate the grayscale curve. […]
(§6) The deacylation rate constants for wild-type PBP2a were determined using BOCILLIN FL as a reporter molecule. […]
(§7) The mixture was diluted 5 times with buffer and incubated at room temperature for different time intervals. […] Grayscale analysis was performed by imageJ and the rate constant k3 for the deacylation reaction of WYBQ-4 with PBP2a was determined based on eqn (3): […]

[9] = tested on: MRSA USA300; assay: TEM analysis of cell morphology / division defects; format: cell-based, Staphylococcus aureus; settings: 4 μg/mL (1/2× MIC), 3 h
Protocol: MRSA USA300 was cultured overnight, diluted (1:100) into 20 mL of Trypticase soy broth (TSB) medium, and incubated at 30°C with shaking until the optical density at 600 nm (OD600) reached 0.3. […] Bacterial cells treated with 4 μg/mL ceftaroline fosamil (1/2 of their respective MIC) served as a control group. Untreated S. aureus served as a negative control. Bacteria were collected and washed in PBS and resuspended in 4% (vol/vol) glutaraldehyde fixation overnight. The fixed samples were further processed, and morphological changes in S. aureus were observed by TEM (JSM-7900F; JEOL, Japan).

[10] = tested on: clinical isolate SA1B2B; assay: Mouse systemic infection model; format: in vivo, mice; settings: different doses
Protocol: (§8) The S. aureus-induced systemic infection model of mice (6-week-old female C57BL/6J mice) was established as previously described ([46]). […] The mice infected in the same way were treated with physiological saline as an infection control group. The mock group was not infected with S. aureus, and the 7-day mortality of the mice in each group was calculated.

[11] = tested on: clinical isolate SA28; assay: Mouse systemic infection model; format: in vivo, mice; settings: different doses
Protocol: as §8

[12] = tested on: MRSA USA300; assay: Mouse systemic infection model; format: in vivo, mice; settings: USA300 5 × 10^7 CFU, 150 mg/kg, tail intravenous injection at 0 and 3 h, 7-day
Protocol: as §8

[13] = molecular target: T1, PBP2a; assay: PBP2a deacylation rate, BOCILLIN FL as reporter; format: biochemical, MRSA; settings: deacylation of PBP2a
Protocol: as §3, §4, §5, §6, §7

**Q.** How did the antibacterial activity [1] turn out when C#CCO[C@@]1(NC(=O)CSc2cccc(C)c2)C(=O)N2C(C(=O)O)=C(CSc3nnnn3C)CSC21 (stereo partly drawn) [WYBQ-4] was run?
**A.** weak

**Q.** And the antibacterial activity [2]?
**A.** weak

**Q.** What about the hemolytic activity [3] of the same compound?
**A.** did not show hemolytic activity

**Q.** And the “bacterial load in the thighs” value [4]?
**A.** 5.21 log10 CFU/g

**Q.** What about the “bacterial load in the thighs” value [5] of the same compound?
**A.** 5.97 log10 CFU/g

**Q.** What about the time-dependent killing effect [6] of the same compound?
**A.** complete sterilization

**Q.** And the time-dependent killing effect [7]?
**A.** complete sterilization

**Q.** What about the Kd [8] of the same compound?
**A.** 28 ± 1.24 µM

**Q.** And the “Asymmetry of bacterial division (number of cells)” value [9]?
**A.** 38

**Q.** What about the “Distortion of septa (number of cells)” value [9] of the same compound?
**A.** 27

**Q.** What about the “Percentage of defective cells (asymmetry of bacterial division)” value [9] of the same compound?
**A.** 40.9 b %

**Q.** What about the “Percentage of defective cells (distortion of septa)” value [9] of the same compound?
**A.** 29.0 a %

**Q.** And the “Percentage of defective cells (thin cell walls)” value [9]?
**A.** 63.4% and 63.4 c %

**Q.** And the “Thin cell walls (number of cells)” value [9]?
**A.** 59

**Q.** What about the “protection in systemic infection” value [10] of the same compound?
**A.** had a protective effect

**Q.** What about the “protection in systemic infection” value [11] of the same compound?
**A.** had a protective effect

**Q.** What about the survival rate [12] of the same compound?
**A.** 100%

**Q.** What about the k3 [13] of the same compound?
**A.** 11 ± 1.32 s^–1 × 10^6
